Literature values, collected in patent publication US6500456B1 (priority 1997, dated 2002).

Details: at 20° C., pure nitroglycerin

Structure (SMILES): O=[N+]([O-])OCC(CO[N+](=O)[O-])O[N+](=O)[O-] [nitroglycerin]
- Vapor pressure: about 0.00026 mm
